Results taken from ChEMBL document CHEMBL1649077, “Synthesis and biological evaluation of aryl-phospho-indole as novel HIV-1 non-nucleoside reverse transcriptase inhibitors” (J Med Chem, 2011).

Experiments:
[1] = Antiviral activity against wild type HIV1 BH10 infected human MT4 cells assessed as inhibition of virus-induced cytopathogenicity; type: functional, cell-based, Human immunodeficiency virus type 1 BH10; conditions: Human immunodeficiency virus 1, MT4
[2] = Antiviral activity against wild type HIV1 BH10 with reverse transcriptase Y181C single mutant infected human MT4 cells assessed as inhibition of virus-induced cytopathogenicity; type: functional, cell-based, Human immunodeficiency virus type 1 BH10; conditions: Human immunodeficiency virus 1, MT4
[3] = Antiviral activity against wild type HIV1 BH10 with reverse transcriptase K103N/Y181C double mutant infected human MT4 cells assessed as inhibition of virus-induced cytopathogenicity; type: functional, cell-based, Human immunodeficiency virus type 1 BH10; conditions: Human immunodeficiency virus 1, MT4
[4] = Antiviral activity against wild type HIV1 BH10 with reverse transcriptase K103N single mutant infected human MT4 cells assessed as inhibition of virus-induced cytopathogenicity; type: functional, cell-based, Human immunodeficiency virus type 1 BH10; conditions: Human immunodeficiency virus 1, MT4
[5] = Metabolic stability of the compound in human hepatocytes assessed as compound remaining after 4 hrs; type: ADME, cell-based, Hepatocyte; conditions: read-out: Stability
[6] = Metabolic stability of the compound in monkey hepatocytes assessed as compound remaining after 4 hrs; type: ADME, cell-based, Macaca mulatta, Hepatocyte; conditions: rhesus monkey, read-out: Stability
[7] = Clearance in rat at 5 mg/kg, po; type: ADME, organism-based; design: dose 5 mg/kg, route oral; conditions: in vivo
[8] = Half life in rat at 5 mg/kg, po; type: ADME, organism-based; design: dose 5 mg/kg, route oral; conditions: in vivo
[9] = Metabolic stability of the compound in dog hepatocytes assessed as compound remaining after 4 hrs; type: ADME, cell-based, Canis lupus familiaris, Hepatocyte; conditions: read-out: Stability
[10] = Oral bioavailability in rat at 5 mg/kg; type: ADME, organism-based; conditions: in vivo
[11] = Metabolic stability of the compound in rat hepatocytes assessed as compound remaining after 4 hrs; type: ADME, cell-based, Hepatocyte; conditions: read-out: Stability

Compound: CN(C)P(=O)(c1ccccc1)c1c(C(N)=O)[nH]c2ccc(Cl)cc12 (stereo unspecified)
- EC50 [1]: 13.9 nM
- EC50 [2]: 467 nM
- EC50 [3]: > 1250 nM
- EC50 [4]: > 1250 nM

Compound: CO[P@](=O)(c1ccccc1)c1c(C(N)=O)[nH]c2ccc(Cl)cc12
- EC50 [1]: 0.1 nM
- EC50 [2]: 3.6 nM
- EC50 [3]: 137 nM
- EC50 [4]: 1.2 nM

Compound: CP(=O)(c1ccccc1)c1c(C(N)=O)[nH]c2ccc(Cl)cc12 (stereo unspecified)
- EC50 [1]: 0.8 nM
- EC50 [2]: 266 nM
- EC50 [3]: > 1250 nM
- EC50 [4]: 1380 nM

Compound: NC(=O)c1[nH]c2ccc(Cl)cc2c1P(=O)(c1ccccc1)c1ccccc1
- EC50 [1]: > 1250 nM

Compound: NC(=O)c1[nH]c2ccc(Cl)cc2c1P(=O)(O)c1ccccc1
- EC50 [1]: > 1250 nM

Compound: COP(=S)(c1ccccc1)c1c(C(N)=O)[nH]c2ccc(Cl)cc12 (stereo unspecified)
- EC50 [1]: 0.4 nM
- EC50 [2]: 41.4 nM
- EC50 [3]: > 1250 nM
- EC50 [4]: 89.9 nM

Compound: COP(=O)(c1ccccc1)c1c(C(N)=O)[nH]c2ccc(Cl)cc12 (racemic)
- remaining at 4 h [5]: 99%
- remaining at 4 h [6]: 49%
- CL/F [7]: 2.85 mL/min/kg
- EC50 [1]: 0.7 nM
- half-life [8]: 71.4 min
- remaining at 4 h [9]: 100%
- EC50 [2]: 10.1 nM
- bioavailability [10]: 107%
- EC50 [3]: 447 nM
- EC50 [4]: 6.8 nM
- remaining at 4 h [11]: 100%

Compound: NC(=O)c1[nH]c2ccc(Cl)cc2c1P(=O)(OCc1ccccc1)c1ccccc1 (stereo unspecified)
- EC50 [1]: 33.7 nM
- EC50 [2]: > 1250 nM
- EC50 [3]: > 1250 nM
- EC50 [4]: > 1250 nM

Compound: CO[P@@](=O)(c1ccccc1)c1c(C(N)=O)[nH]c2ccc(Cl)cc12
- EC50 [1]: 182 nM
- EC50 [2]: > 1250 nM
- EC50 [3]: > 1250 nM
- EC50 [4]: > 1250 nM

Compound: CCOP(=O)(c1ccccc1)c1c(C(N)=O)[nH]c2ccc(Cl)cc12 (stereo unspecified)
- EC50 [1]: 1.2 nM
- EC50 [2]: 13.7 nM
- EC50 [3]: > 1250 nM
- EC50 [4]: 16.4 nM
